According to EP0059645A1, “Method and kit for identification of beta-lactamases” (NATIONAL RESEARCH DEVELOPMENT CORPORATION, priority 1981, dated 1982):
Marks after values point to notes of the source that are not given here.

Assays:
TEM-1 [1] = molecular target: T1, TEM-1 (Escherichia coli, UniProt P62593); test: 6-well visual test with nitrocefin; conditions: 3 minutes, room temperature
OXA-3 [2] = molecular target: T2, OXA-3 (Pseudomonas aeruginosa, UniProt Q51429); test: 6-well visual test with nitrocefin; conditions: 3 minutes, room temperature
T2 sequence (Q51429 22-275): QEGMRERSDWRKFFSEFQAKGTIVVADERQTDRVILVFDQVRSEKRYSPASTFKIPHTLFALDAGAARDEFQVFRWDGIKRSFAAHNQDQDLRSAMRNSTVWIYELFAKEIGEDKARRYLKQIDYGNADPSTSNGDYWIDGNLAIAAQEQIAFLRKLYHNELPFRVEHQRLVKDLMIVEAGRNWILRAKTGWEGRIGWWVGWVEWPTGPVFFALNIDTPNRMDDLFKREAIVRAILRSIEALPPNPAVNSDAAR

HMS-1 = test: Competitive assay with nitrocefin (RSAI); type: biochemical, E. coli 1946
OXA-1 [3] = molecular target: T3, OXA-1 (Escherichia coli, UniProt P13661); test: Competitive assay with nitrocefin (RSAI); type: biochemical, E. coli 1527E; set-up: the beta-lactamase has to be extracted from the cells for the purpose of the present invention; made in house; host or cells: E. coli 1527E according to the earlier reading (crude cell extract)
T3 sequence (P13661 26-276): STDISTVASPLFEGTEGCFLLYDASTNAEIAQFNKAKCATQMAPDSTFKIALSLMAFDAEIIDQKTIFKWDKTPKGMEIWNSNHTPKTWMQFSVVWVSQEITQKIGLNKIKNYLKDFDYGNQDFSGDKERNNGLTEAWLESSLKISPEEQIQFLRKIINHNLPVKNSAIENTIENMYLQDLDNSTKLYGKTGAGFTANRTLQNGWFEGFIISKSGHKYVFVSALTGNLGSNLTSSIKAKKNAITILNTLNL

Ps +AMP (Chromosomal) = Ps +AMP (Chromosomal) (Pseudomonas aeruginosa, UniProt P24735); test: 6-well visual test with nitrocefin; conditions: 3 minutes, room temperature
Chain of Ps +AMP (Chromosomal) (P24735 27-397): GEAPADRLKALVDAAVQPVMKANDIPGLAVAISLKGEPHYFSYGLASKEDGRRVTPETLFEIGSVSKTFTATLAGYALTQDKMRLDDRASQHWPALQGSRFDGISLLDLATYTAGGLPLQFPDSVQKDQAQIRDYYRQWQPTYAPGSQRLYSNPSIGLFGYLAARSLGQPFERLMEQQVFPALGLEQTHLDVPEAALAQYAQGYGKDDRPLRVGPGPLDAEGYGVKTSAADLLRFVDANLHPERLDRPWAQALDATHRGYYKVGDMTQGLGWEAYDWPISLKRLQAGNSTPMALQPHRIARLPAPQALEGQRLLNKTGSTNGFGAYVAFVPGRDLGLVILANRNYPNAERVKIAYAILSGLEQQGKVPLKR

SHV-1 = SHV-1 (Escherichia coli, UniProt P0AD63); test: Competitive assay with nitrocefin (RSAI); type: biochemical, E. coli 2008E; set-up: the beta-lactamase has to be extracted from the cells for the purpose of the present invention; made in house; host or cells: E. coli 2008E (crude cell extract)
Chain of SHV-1 (P0AD63 22-286): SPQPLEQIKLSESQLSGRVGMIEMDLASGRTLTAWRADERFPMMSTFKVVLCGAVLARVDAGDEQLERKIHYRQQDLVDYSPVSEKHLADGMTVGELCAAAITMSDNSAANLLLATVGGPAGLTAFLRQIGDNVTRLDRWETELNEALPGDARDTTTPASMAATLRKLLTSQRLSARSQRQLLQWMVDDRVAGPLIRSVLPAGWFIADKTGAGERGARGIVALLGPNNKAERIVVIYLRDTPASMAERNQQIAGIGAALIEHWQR

TEM-2 [4] = molecular target: T4, TEM-2 (Escherichia coli, UniProt P62593, Q37K); test: Competitive assay with nitrocefin (RSAI); type: biochemical, E. coli 1725E
PSE-3 [5] = test: Competitive assay with nitrocefin (RSAI); type: biochemical, Ps.aerug. 1920E
K1073 = test: Competitive assay with nitrocefin (RSAI); type: biochemical, Klebsiella 1073
PSE-4 [6] = molecular target: T5, PSE-4 (Pseudomonas aeruginosa, UniProt P16897); test: 6-well visual test with nitrocefin; conditions: 3 minutes, room temperature
T5 sequence (P16897 18-288): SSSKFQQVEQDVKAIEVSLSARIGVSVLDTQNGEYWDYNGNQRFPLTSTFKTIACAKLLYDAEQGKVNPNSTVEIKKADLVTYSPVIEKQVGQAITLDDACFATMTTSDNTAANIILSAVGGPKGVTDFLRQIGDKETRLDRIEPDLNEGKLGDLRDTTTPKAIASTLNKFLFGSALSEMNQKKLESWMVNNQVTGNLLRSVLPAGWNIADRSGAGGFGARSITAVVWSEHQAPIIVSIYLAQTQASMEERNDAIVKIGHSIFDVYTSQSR

TEM-2 beta-lactamase = TEM-2 beta-lactamase (Escherichia coli, UniProt P62593, Q37K); type: biochemical, E. coli C9 RP4; conditions: from kinetics of nitrocefin cleavage
PSE-1 = PSE-1 (Pseudomonas aeruginosa, UniProt Q03170); test: 6-well visual test with nitrocefin; conditions: 3 minutes, room temperature
Chain of PSE-1 (Q03170 18-288): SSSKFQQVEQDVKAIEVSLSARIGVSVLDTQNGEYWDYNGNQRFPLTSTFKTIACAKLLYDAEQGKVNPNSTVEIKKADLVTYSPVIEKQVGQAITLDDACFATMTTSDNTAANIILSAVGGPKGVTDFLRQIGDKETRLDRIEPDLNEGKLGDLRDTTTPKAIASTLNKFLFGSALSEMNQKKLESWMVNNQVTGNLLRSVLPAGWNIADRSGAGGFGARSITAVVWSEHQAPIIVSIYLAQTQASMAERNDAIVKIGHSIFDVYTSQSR

TEM-1 [7] = molecular target: T1, TEM-1; test: Competitive assay with nitrocefin (RSAI); type: biochemical, E. coli 2136E; set-up: the beta-lactamase has to be extracted from the cells for the purpose of the present invention; made in house; host or cells: E. coli 2136E (plasmid-bearing strain; crude cell extract)
OXA-1 [8] = molecular target: T3, OXA-1; test: 6-well visual test with nitrocefin; conditions: 3 minutes, room temperature
PSE-3 [9] = test: 6-well visual test with nitrocefin; conditions: 3 minutes, room temperature
[10] = molecular target: Chromosomal, hyper-induced beta-lactamase enzyme (Escherichia coli, UniProt P00811); test: Competitive assay with nitrocefin (RSAI); type: biochemical, E. coli SNU35; set-up: Normally, therefore, the beta-lactamase has to be extracted from the cells for the purpose of the present invention; endogenous in cells; host or cells: E. coli SNU 35 (artificially produced strain)
Chain of Chromosomal, hyper-induced beta-lactamase enzyme (P00811 20-377): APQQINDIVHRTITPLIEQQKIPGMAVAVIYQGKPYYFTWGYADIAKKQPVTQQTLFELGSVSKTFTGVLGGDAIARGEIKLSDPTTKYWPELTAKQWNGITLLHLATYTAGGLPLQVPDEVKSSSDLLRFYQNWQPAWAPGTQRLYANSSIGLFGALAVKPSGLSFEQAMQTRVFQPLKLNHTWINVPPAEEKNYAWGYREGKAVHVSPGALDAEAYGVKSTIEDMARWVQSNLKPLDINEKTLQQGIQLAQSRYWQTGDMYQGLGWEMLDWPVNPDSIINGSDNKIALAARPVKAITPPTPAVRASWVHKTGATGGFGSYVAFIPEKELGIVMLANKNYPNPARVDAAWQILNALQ

PSE-4 [11] = molecular target: T5, PSE-4; test: Competitive assay with nitrocefin (RSAI); type: biochemical, Ps.aerug. 1559E; set-up: Normally, therefore, the beta-lactamase has to be extracted from the cells for the purpose of the present invention; endogenous in cells
OXA-3 [12] = molecular target: T2, OXA-3; test: Competitive assay with nitrocefin (RSAI); type: biochemical, E. coli R57B; set-up: Normally, therefore, the beta-lactamase has to be extracted from the cells for the purpose of the present invention; endogenous in cells
PSE-2 [13] = molecular target: T6, PSE-2 (Pseudomonas aeruginosa, UniProt P14489); test: 6-well visual test with nitrocefin; conditions: 3 minutes, room temperature
T6 sequence (P14489 20-266): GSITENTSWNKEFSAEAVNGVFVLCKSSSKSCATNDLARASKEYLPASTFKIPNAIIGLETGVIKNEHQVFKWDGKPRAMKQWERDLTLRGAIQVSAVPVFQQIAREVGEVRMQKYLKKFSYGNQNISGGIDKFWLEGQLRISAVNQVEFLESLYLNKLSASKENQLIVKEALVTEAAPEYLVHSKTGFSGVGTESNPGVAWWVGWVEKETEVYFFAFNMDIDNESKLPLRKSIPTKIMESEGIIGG

E. cloacae = E. cloacae (Enterobacter cloacae, UniProt P05364); test: 6-well visual test with nitrocefin; conditions: 3 minutes, room temperature
Chain of E. cloacae (P05364 21-381): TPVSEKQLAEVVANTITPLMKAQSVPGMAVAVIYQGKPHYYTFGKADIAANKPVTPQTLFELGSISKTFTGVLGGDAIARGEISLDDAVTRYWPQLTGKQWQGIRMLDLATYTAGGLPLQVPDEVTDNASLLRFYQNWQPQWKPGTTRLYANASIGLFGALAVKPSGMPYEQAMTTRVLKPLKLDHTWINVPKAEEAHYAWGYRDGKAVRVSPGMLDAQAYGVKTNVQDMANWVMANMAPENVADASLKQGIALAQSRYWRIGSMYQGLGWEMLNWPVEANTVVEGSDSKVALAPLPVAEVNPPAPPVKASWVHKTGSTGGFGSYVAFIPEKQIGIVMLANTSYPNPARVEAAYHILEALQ

PSE-2 [14] = molecular target: T6, PSE-2; test: Competitive assay with nitrocefin (RSAI); type: biochemical, Ps.aerug. 1973E; set-up: Normally, therefore, the beta-lactamase has to be extracted from the cells for the purpose of the present invention; endogenous in cells
TEM-2 [15] = molecular target: T4, TEM-2; test: 6-well visual test with nitrocefin; conditions: 3 minutes, room temperature
[16] = tested on: "unknown" (unidentified) beta-lactamase; test: Competitive assay with nitrocefin (RSAI) on an unidentified beta-lactamase; conditions: extract by the method of Example 6, assay as in Example 1; * = showed irreversible inhibition
[17] = well A: Cefoxitin 20:1 to nitrocefin
[18] = well E: Cefoxitin 200:1 to nitrocefin

SMILES: CO[C@@]1(NC(=O)Cc2cccs2)C(=O)N2C(C(=O)O)=C(COC(N)=O)CS[C@@H]21 [Cefoxi-tin, cefoxitin]
- Score in 6-well visual test (TEM-1 [1]; [17]): ++
- Score in 6-well visual test (TEM-1 [1]; [18]): -
- Score in 6-well visual test (OXA-3 [2]; [17]): -
- Score in 6-well visual test (OXA-3 [2]; [18]): -
- RSAI (HMS-1): 60
- RSAI (OXA-1 [3]): 20
- Score in 6-well visual test (Ps +AMP (Chromosomal); [17]): -
- Score in 6-well visual test (Ps +AMP (Chromosomal); [18]): -
- RSAI (SHV-1): 600
- RSAI (TEM-2 [4]): 60*
- RSAI (PSE-3 [5]): 11.4
- RSAI (K1073): 1020
- Score in 6-well visual test (PSE-4 [6]; [17]): +
- Score in 6-well visual test (PSE-4 [6]; [18]): -
- nature of the binding to the enzyme (TEM-2 beta-lactamase): irreversible binding
- Score in 6-well visual test (PSE-1; [17]): ++
- Score in 6-well visual test (PSE-1; [18]): -
- RSAI (TEM-1 [7]): 60*
- Score in 6-well visual test (OXA-1 [8]; [17]): ++
- Score in 6-well visual test (OXA-1 [8]; [18]): -
- Score in 6-well visual test (PSE-3 [9]; [17]): +
- Score in 6-well visual test (PSE-3 [9]; [18]): -
- RSAI [10]: 0.0008
- RSAI (PSE-4 [11]): 27
- RSAI (OXA-3 [12]): 0.004
- Score in 6-well visual test (PSE-2 [13]; [17]): +
- Score in 6-well visual test (PSE-2 [13]; [18]): -
- Score in 6-well visual test (E. cloacae; [17]): -
- Score in 6-well visual test (E. cloacae; [18]): -
- RSAI (PSE-2 [14]): 24
- Score in 6-well visual test (TEM-2 [15]; [17]): ++
- Score in 6-well visual test (TEM-2 [15]; [18]): -
- RSAI [16]: 0.008
